Measurements as given in PubChem BioAssay (NCI).
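Growth conditions: 96-well plates. Treatment: test compound, 48 hours, 5 concentrations. Analysis: linear interpolation between bracketing concentrations; unreached endpoints set to highest concentration. GI50 marks 50% less growth. TGI is the concentration that stops growth completely.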

Key:
Test in all cases: NCI tumour cell line growth inhibition, 48 h
PC-3 prostate = tested on: PC-3 prostate
ACHN renal = tested on: ACHN renal
MCF7 breast = tested on: MCF7 breast
786-0 renal = tested on: 786-0 renal
EKVX NSCLC = tested on: EKVX NSCLC
SF-268 CNS = tested on: SF-268 CNS
RXF 393 renal = tested on: RXF 393 renal
NCI-H226 lung = tested on: NCI-H226 lung
CCRF-CEM leukemia = tested on: CCRF-CEM leukemia
HL-60(TB) leukemia = tested on: HL-60(TB) leukemia

SMILES: C/C(N=Nc1nc2ccccc2o1)=C1/C=CC=CN1O
- TGI (PC-3 prostate): > 100 µM
- TGI (ACHN renal): > 100 µM
- TGI (MCF7 breast): 81.2 µM
- TGI (786-0 renal): > 100 µM
- TGI (EKVX NSCLC): 24.3 µM
- TGI (SF-268 CNS): > 100 µM
- TGI (RXF 393 renal): > 100 µM
- TGI (NCI-H226 lung): > 100 µM
- TGI (CCRF-CEM leukemia): > 100 µM

SMILES: Nc1nc(SCCC/C=C/I)nc2c1ncn2C1OC(CO)C(O)C1O (stereo unspecified)
- TGI (ACHN renal): > 202 µM
- TGI (786-0 renal): > 202 µM
- TGI (SF-268 CNS): > 202 µM
- TGI (NCI-H226 lung): > 202 µM
- TGI (HL-60(TB) leukemia): > 202 µM
- TGI (CCRF-CEM leukemia): > 202 µM

SMILES: Cc1nnc2sc(N/N=C/c3ccccc3)nn12
- TGI (PC-3 prostate): > 100 µM
- TGI (ACHN renal): > 100 µM
- TGI (MCF7 breast): > 100 µM
- TGI (786-0 renal): > 100 µM
- TGI (EKVX NSCLC): > 100 µM
- TGI (SF-268 CNS): > 100 µM
- TGI (RXF 393 renal): > 100 µM
- TGI (NCI-H226 lung): > 100 µM
- TGI (CCRF-CEM leukemia): > 100 µM

SMILES: O=C(O)/C=C/C(=O)O
- TGI (PC-3 prostate): > 100 µM
- TGI (ACHN renal): > 100 µM
- TGI (MCF7 breast): > 100 µM
- TGI (786-0 renal): > 100 µM
- TGI (EKVX NSCLC): > 100 µM
- TGI (SF-268 CNS): > 100 µM
- TGI (NCI-H226 lung): > 100 µM
- TGI (HL-60(TB) leukemia): > 100 µM
- TGI (CCRF-CEM leukemia): > 100 µM

SMILES: O=C(O)c1ccc(Nc2nc3ccccc3nc2C(=O)O)cc1
- TGI (ACHN renal): > 100 µM
- TGI (MCF7 breast): > 100 µM
- TGI (786-0 renal): > 100 µM
- TGI (EKVX NSCLC): > 100 µM
- TGI (SF-268 CNS): > 100 µM
- TGI (CCRF-CEM leukemia): > 100 µM

SMILES: N#Cc1nc(/C=C/c2ccccc2)oc1N
- TGI (PC-3 prostate): > 100 µM
- TGI (ACHN renal): > 100 µM
- TGI (MCF7 breast): > 100 µM
- TGI (786-0 renal): > 100 µM
- TGI (EKVX NSCLC): > 100 µM
- TGI (SF-268 CNS): > 100 µM
- TGI (RXF 393 renal): > 100 µM
- TGI (NCI-H226 lung): > 100 µM
- TGI (CCRF-CEM leukemia): > 100 µM

SMILES: NC(=O)CS(=O)CC(N)C(=O)O (stereo unspecified)
- TGI (PC-3 prostate): > 100 µM
- TGI (ACHN renal): > 100 µM
- TGI (786-0 renal): > 100 µM
- TGI (EKVX NSCLC): > 100 µM
- TGI (SF-268 CNS): > 100 µM
- TGI (RXF 393 renal): > 100 µM
- TGI (NCI-H226 lung): > 100 µM

SMILES: COc1cc(-c2nc3nc(N4CCN(C)CC4)ccc3[nH]2)c(OC)c2[nH]c(COC(C)=O)nc12
- TGI (ACHN renal): > 100 µM
- TGI (MCF7 breast): 43.9 µM
- TGI (786-0 renal): 72.4 µM
- TGI (EKVX NSCLC): > 100 µM
- TGI (SF-268 CNS): > 100 µM
- TGI (RXF 393 renal): 86.7 µM

SMILES: O=C(/C=C/c1ccccc1O)/C=C/c1ccccc1O
- TGI (PC-3 prostate): 3.38 µM
- TGI (ACHN renal): 3.35 µM
- TGI (786-0 renal): 3.22 µM
- TGI (SF-268 CNS): 0.905 µM
- TGI (HL-60(TB) leukemia): 7.62 µM

SMILES: CC(C)(NC1=NCCO1)c1ccccc1
- TGI (PC-3 prostate): > 100 µM
- TGI (ACHN renal): > 100 µM
- TGI (MCF7 breast): > 100 µM
- TGI (786-0 renal): > 100 µM
- TGI (EKVX NSCLC): > 100 µM
- TGI (SF-268 CNS): > 100 µM
- TGI (RXF 393 renal): > 100 µM
- TGI (NCI-H226 lung): > 100 µM

SMILES: OCC(O)C(O)C(O)C(/C=N\Nc1ncnc2ccc(Br)cc12)=N/Nc1ncnc2ccc(Br)cc12 (stereo unspecified)
- TGI (PC-3 prostate): > 100 µM
- TGI (ACHN renal): > 100 µM
- TGI (MCF7 breast): > 100 µM
- TGI (786-0 renal): > 100 µM
- TGI (EKVX NSCLC): > 100 µM
- TGI (SF-268 CNS): > 100 µM
- TGI (RXF 393 renal): > 100 µM
- TGI (NCI-H226 lung): > 100 µM
- TGI (HL-60(TB) leukemia): > 100 µM

SMILES: C/C=C\C(CC(=O)NCCC1CN(C(=O)c2ccccc2)c2ccccc21)CC(=O)OC (stereo unspecified)
- TGI (PC-3 prostate): > 100 µM
- TGI (ACHN renal): > 100 µM
- TGI (MCF7 breast): > 100 µM
- TGI (786-0 renal): > 100 µM
- TGI (EKVX NSCLC): > 100 µM
- TGI (SF-268 CNS): > 100 µM
- TGI (RXF 393 renal): > 100 µM

SMILES: Cc1n(CC(=O)c2ccccc2)nc2sc(N)n[n+]12
- TGI (PC-3 prostate): > 100 µM
- TGI (ACHN renal): > 100 µM
- TGI (MCF7 breast): > 100 µM
- TGI (786-0 renal): > 100 µM
- TGI (EKVX NSCLC): > 100 µM
- TGI (SF-268 CNS): > 100 µM
- TGI (RXF 393 renal): > 100 µM
- TGI (NCI-H226 lung): > 100 µM
- TGI (CCRF-CEM leukemia): > 100 µM

SMILES: CCOC(=O)[C@H]1Nc2ccc(Cl)cc2[C@H]2c3ccccc3O[C@H]21
- TGI (ACHN renal): > 100 µM
- TGI (786-0 renal): > 100 µM
- TGI (EKVX NSCLC): > 100 µM
- TGI (SF-268 CNS): > 100 µM
- TGI (RXF 393 renal): > 100 µM
- TGI (NCI-H226 lung): > 100 µM

SMILES: CC(C)CCC[C@@H](C)[C@H]1CCC2C3=CCC4C(=O)C=CC(=O)C4C3CC[C@@]21C (stereo partly specified)
- GI50 (PC-3 prostate): 101 nM
- GI50 (EKVX NSCLC): 279 nM
- GI50 (SF-268 CNS): 566 nM
- TGI (SF-268 CNS): > 100 µM
- GI50 (NCI-H226 lung): 849 nM
- TGI (NCI-H226 lung): > 100 µM
- GI50 (HL-60(TB) leukemia): 270 nM
- TGI (HL-60(TB) leukemia): > 100 µM
- GI50 (CCRF-CEM leukemia): 179 nM
- TGI (CCRF-CEM leukemia): > 100 µM

SMILES: COc1ccc(/C=N/n2c(Cc3ccc(Cl)cc3)n[nH]c2=O)c(OC)c1
- TGI (PC-3 prostate): > 100 µM
- TGI (ACHN renal): > 100 µM
- TGI (MCF7 breast): > 100 µM
- TGI (786-0 renal): 52.8 µM
- TGI (EKVX NSCLC): > 100 µM
- TGI (SF-268 CNS): 32 µM
- TGI (RXF 393 renal): 41.7 µM
- TGI (NCI-H226 lung): 61.2 µM
- TGI (CCRF-CEM leukemia): > 100 µM

SMILES: Clc1ncnc2c1ncn2CCCCCCCCCCCCn1cnc2c(Cl)ncnc21
- TGI (ACHN renal): 27.9 µM
- TGI (786-0 renal): 71.8 µM
- TGI (EKVX NSCLC): 33 µM
- TGI (SF-268 CNS): 27.7 µM
- TGI (RXF 393 renal): 32.2 µM
- TGI (NCI-H226 lung): 24.5 µM
- TGI (HL-60(TB) leukemia): 19.1 µM
- TGI (CCRF-CEM leukemia): > 100 µM

SMILES: O=C(Nc1cccc(-n2ccc3c(NC(=O)c4ccccc4)nccc32)c1)c1cc(N2CCOCC2)cc(C(F)(F)F)c1
- GI50 (PC-3 prostate): 152 nM
- TGI (PC-3 prostate): > 100 µM
- GI50 (ACHN renal): 116 nM
- GI50 (MCF7 breast): 33.2 nM
- TGI (MCF7 breast): > 100 µM
- GI50 (EKVX NSCLC): 802 nM
- TGI (EKVX NSCLC): > 100 µM
- GI50 (SF-268 CNS): 264 nM
- TGI (SF-268 CNS): > 100 µM
- GI50 (RXF 393 renal): 32.5 nM
- TGI (RXF 393 renal): 0.159 µM
- GI50 (NCI-H226 lung): 360 nM
- GI50 (HL-60(TB) leukemia): 514 nM
- TGI (HL-60(TB) leukemia): > 100 µM

SMILES: COc1ccc(C(O)/C(=C/n2ccnc2)c2ccccc2)cc1OC (stereo unspecified)
- TGI (ACHN renal): > 100 µM
- TGI (786-0 renal): > 100 µM
- TGI (EKVX NSCLC): > 100 µM
- TGI (SF-268 CNS): > 100 µM
- TGI (RXF 393 renal): > 100 µM
- TGI (NCI-H226 lung): > 100 µM
- TGI (HL-60(TB) leukemia): > 100 µM
- TGI (CCRF-CEM leukemia): > 100 µM

SMILES: CCCCCCOc1ccc(NC2=C(Cl)C(=O)c3ncccc3C2=O)cc1
- TGI (PC-3 prostate): 3.97 µM
- TGI (ACHN renal): > 10 µM
- TGI (MCF7 breast): 2.63 µM
- TGI (786-0 renal): 5.75 µM
- TGI (EKVX NSCLC): > 10 µM
- TGI (SF-268 CNS): 4.07 µM
- TGI (RXF 393 renal): 3.7 µM
- TGI (NCI-H226 lung): > 10 µM
- TGI (CCRF-CEM leukemia): 5.96 µM

SMILES: COC(=O)c1cccc(C(=O)OC)c1
- TGI (ACHN renal): > 100 µM
- TGI (SF-268 CNS): > 100 µM
- TGI (RXF 393 renal): > 100 µM
- TGI (NCI-H226 lung): > 100 µM
- TGI (HL-60(TB) leukemia): > 100 µM
- TGI (CCRF-CEM leukemia): > 100 µM

SMILES: O=C1/C(=C/c2ccco2)NC(=S)N1CN1CCOCC1
- TGI (PC-3 prostate): > 100 µM
- TGI (ACHN renal): > 100 µM
- TGI (MCF7 breast): > 100 µM
- TGI (786-0 renal): > 100 µM
- TGI (EKVX NSCLC): > 100 µM
- TGI (SF-268 CNS): > 100 µM
- TGI (NCI-H226 lung): > 100 µM
- TGI (CCRF-CEM leukemia): > 100 µM

SMILES: C=CCN(CC=C)CC(C(C)=O)C(c1ccccc1)c1c(O)c2ccccc2oc1=O (stereo unspecified)
- TGI (ACHN renal): > 100 µM
- TGI (786-0 renal): > 100 µM
- TGI (EKVX NSCLC): > 100 µM
- TGI (SF-268 CNS): > 100 µM
- TGI (RXF 393 renal): > 100 µM
- TGI (NCI-H226 lung): > 100 µM
- TGI (HL-60(TB) leukemia): > 100 µM
- TGI (CCRF-CEM leukemia): > 100 µM

SMILES: COc1nc2[nH]ccc2c(=O)n1C
- TGI (ACHN renal): > 100 µM
- TGI (EKVX NSCLC): > 100 µM
- TGI (SF-268 CNS): > 100 µM
- TGI (RXF 393 renal): > 100 µM
- TGI (HL-60(TB) leukemia): > 100 µM
- TGI (CCRF-CEM leukemia): > 100 µM

SMILES: COc1ccccc1NC(=O)CC(=O)NNCC(=O)Nc1nnc(-c2ccccc2)o1
- TGI (ACHN renal): > 100 µM
- TGI (786-0 renal): > 100 µM
- TGI (EKVX NSCLC): > 100 µM
- TGI (SF-268 CNS): > 100 µM
- TGI (NCI-H226 lung): > 100 µM
